Experimental findings from paper PMC7083851, “Extended pharmacodynamic responses observed upon PROTAC-mediated degradation of RIPK2” (Communications Biology, 2020) are described below.

Structures are written as SMILES. Where “and” joins values, the source holds several entries; their conditions need not be identical. Identical values can stand only once.

One series deals with T1, XIAP (Homo sapiens, UniProt P98170).
T1 construct: endogenous in cells; host or cells: primary human PBMCs
Briefly: XIAP levels in human PBMCs, 24 h, capillary immunoassay. Format: cell-based. Conditions: up to 1uM. As for the experimental part:
Where the assessment of cytokines was performed, L18-MDP was added to the cell culture media (1 μg/ml) or to the rat blood samples (100 ng/ml) and samples were incubated for up to 4 h. For human blood, 250 ng/ml MDP (Invivogen) was added following compound treatment and the samples were further incubated for 5 h. Samples were them spun down at 1000 g and the cell culture supernatant, plasma or serum were collected for cytokines assessment, while cell pellets were used for RIPK2 and/or cIAP1, cIAP2, and XIAP levels analysis via immunoblotting.
Simple Western immunoassay: Cell lysates were mixed with 5× concentrated master mix (Protein Simple) and denatured at 95 °C on a heat block for 5 min together with the provided ladder (Protein Simple). Antibodies were diluted in the provided buffer as following: anti-RIPK2 (1:10 or 1:50), anti-cIAP1(1:10), anti-cIAP2 (1:10), anti-XIAP (1:10), mouse anti-β-actin (Abcam - 1:1000), rabbit anti-β-actin (Abcam - 1:50) and anti-vinculin (1:100). […] All samples were analyzed using the associated Compass software 3.1.7. […]
Cell viability was assessed by using Cell Titer
Kit (Promega) according to the manufacturer’s instructions. Samples were analysed using […]

In series [1] the test system is spontaneous IL-1β, IL-6, and TNFα release. Kind of series: Spontaneous cytokine release (IL-1β, IL-6, TNFα) from ulcerative colitis patient intestinal biopsies. Format: cell-based, human. Conditions: for IL-1b (Ctrl=DMSO = 100) / IL-6 (Ctrl=DMSO = 100) / TNFa (Ctrl=DMSO = 100): individual biopsies, fig 4f. As for the experimental part: Colonic biopsies or tissues were obtained during endoscopy or via surgical resection from Crohn’s Disease (CD) or Ulcerative Colitis (UC) patients (St Bartholomew’s Hospital, London). All patients gave informed written consent. For surgical specimens, the mucosa was dissected away from the submucosa and cut into pieces of ~10–20 mg. […] The supernatants were collected for cytokine measurement as detailed in cytokines assay section while tissues were used to determine RIPK2 levels.
(§1) Cytokine measurement assay: Cytokine levels were measured in rat plasma or rat PBMCs cell culture supernatants using rat V-Plex TNFα, in human plasma or human PBMCs cell culture supernatants with either TNFα tissue culture or 7-plex kit. Rat serum and tissues samples from the in vivo L18-MDP acute inflammation model were analyzed using the rat TNFα, Il-6 and IL-8 U-Plex kits. All kits provided by Meso Scale Discovery (MSD). Levels of cytokines spontaneously released from human colon biopsies cell culture supernatants were measured using Human IL-1 beta/IL-1F2 DuoSet ELISA (Bio-techne), Human IL-6 ELISA (Immunotools) and Human TNF-alpha DuoSet ELISA (Bio-techne). All samples were processed accordingly to the manufacturer’s instructions. The MSD plates were analyzed using the MSD sector imager 6000 plate reader and cytokines concentration (pg/ml) was obtained by using the MSD DISCOVERY WORKBENCH software version 4.0.12.1

The test system of series [2] is L18-MDP-induced cytokine release. Briefly: In vivo L18-MDP acute inflammation model, spleen cytokines. Conditions: for cytokine level (fig 6e) / cytokine level (fig 6f) / cytokine level (fig 6d): spleen, individual rats, beside L18-MDP control. Also on record: species or system rat; cytokine level (fig 6d) / cytokine level (fig 6e) / cytokine level (fig 6f): unit not given here. As for the experimental part:
In vivo L18-MDP administration to rodents results in an acute inflammatory response characterised by the rapid production of inflammatory cytokines. […]. […]. Blood concentrations of 6 and 7 tracked closely and dropped below the LLQ after 24 h.
. Cytokine levels were determined in serum generated from the terminal blood samples and in tissue lysates as detailed below.
as §1
For in vivo studies, RIPK2:tubulin ratios and cytokine levels from each individual experiment were analysed either using a One-way ANOVA with Dunnet’s post-test or a two way ANOVA using GraphPad Prism 5.0.4 to determine statistical significance with 95% confidence levels.

In a further series the test system is MDP-induced TNFα release. Briefly: MDP-induced TNFα release in human whole blood. Format: cell-based. Conditions: inhibition of MDP-induced TNFα release. As for the experimental part:
Before treatment with compound or vehicle, THP1 cells, human and rat PBMCs were counted using Vi-Cell cell counter (Invitrogen) and adjusted to a final cell density of […] using complete growth medium. Cells or whole blood were treated with vehicle (0.1% DMSO) or fixed concentrations of compound up to 1 μM in half log unit increments and incubated for the time period indicated in the figure.
Where the assessment of cytokines was performed, L18-MDP was added to the cell culture media (1 μg/ml) or to the rat blood samples (100 ng/ml) and samples were incubated for up to 4 h. […]
as §1, with “All kits provided by Meso Scale Discovery (MSD).” left out, “All samples were processed accordingly to the manufacturer’s instructions.” left out, “4.0.12.1 […]” for “4.0.12.1”

The nature of another series: Hepatocyte CLint, rat. The format is in vitro ADME. Conditions: rat liver hepatocytes. As for the experimental part:
Metabolic stability was performed at Cyprotex (UK). Pooled liver microsomes / cryopreserved pooled hepatocytes were purchased from a commercial supplier (BD Biosciences or Corning/InVitro Technologies).
The final incubation volume was 500 µL. An appropriate vehicle control was used. Each compound was incubated for 0, 5, 10, 20, 40, and 60 min. The control (vehicle) was incubated for 60 min.
All incubations were terminated by transferring 50 μL of incubate to 100 μL of acetonitrile containing internal standard at the appropriate time points. The termination plates were centrifuged at 2500 rpm for 20–30min at 4 °C to precipitate the protein. Following protein precipitation, samples were analysed using quantitative LC-MS/MS.

T1 sequence (P98170 whole entry): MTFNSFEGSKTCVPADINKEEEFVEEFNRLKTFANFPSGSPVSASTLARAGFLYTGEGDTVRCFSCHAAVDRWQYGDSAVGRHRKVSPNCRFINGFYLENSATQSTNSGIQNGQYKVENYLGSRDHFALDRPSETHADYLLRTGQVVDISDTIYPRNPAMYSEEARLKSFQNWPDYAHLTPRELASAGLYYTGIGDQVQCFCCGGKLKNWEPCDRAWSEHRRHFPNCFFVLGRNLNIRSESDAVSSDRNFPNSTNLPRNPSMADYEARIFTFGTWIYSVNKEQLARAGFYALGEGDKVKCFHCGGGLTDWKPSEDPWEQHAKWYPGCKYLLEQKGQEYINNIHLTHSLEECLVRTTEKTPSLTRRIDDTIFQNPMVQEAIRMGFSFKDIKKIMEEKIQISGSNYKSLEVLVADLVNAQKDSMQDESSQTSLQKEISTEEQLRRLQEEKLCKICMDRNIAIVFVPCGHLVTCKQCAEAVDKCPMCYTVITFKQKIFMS

Consider `CN[C@@H](C)C(=O)N[C@H](C(=O)N1C[C@@H](NC(=O)c2cnc(N3CCN(CCCOc4cc5ncnc(Nc6n[nH]c(C)c6C)c5cc4S(=O)(=O)C(C)(C)C)CC3)cn2)C[C@H]1C(=O)Nc1c(F)cccc1F)C(C)(C)C` [PROTAC 6], for which the “change in XIAP protein levels, in words” value on XIAP is recorded as “no change in protein levels”. The IC50 in series [1] (Homo sapiens, 24 h, read-out: IC50 inhibition of spontaneous cytokine release) was in the range of 1 to 3 nM. The “IL-1b (Ctrl=DMSO = 100)” value in series [1] (compound concentration 0.05 nM) was 133 and 73 and 55; in series [1] (compound concentration 0.5 nM), 74 and 22 and 52 and 46; in series [1] (compound concentration 5 nM), 49 and 88 and 62 (2×) and 28 and 58 and 77 and 41 and 55 and 30 and 27 (2×) and 11 and 37 and 67 and 54 and 44 and 40 and 39; in series [1] (compound concentration 50 nM), 38 and 22 and 12 (2×) and 95 and 26 and 24 and 43 and 15 and 68 and 21 and 1 and 23 and 39 and 18 and 7 and 11 and 34. The “IL-6 (Ctrl=DMSO = 100)” value is 93 and 184 and 79 and 87 and 89 and 91 in series [1] (compound concentration 0.05 nM); 92 and 83 and 67 and 77 and 80 and 11 and 42 in series [1] (compound concentration 0.5 nM); 56 and 59 and 11 and 74 and 96 and 85 and 64 and 76 (2×) and 88 and 71 and 79 and 77 and 55 and 44 and 53 and 86 and 25 and 29 in series [1] (compound concentration 5 nM); 60 and 39 and 68 and 67 and 21 (2×) and 10 and 19 and 76 and 22 and 48 (2×) and 75 and 36 and 35 and 62 and 11 and 24 in series [1] (compound concentration 50 nM). In addition, the “TNFa (Ctrl=DMSO = 100)” value in series [1] (compound concentration 0.05 nM) is 89 and 94 (2×) and 80 and 99; in series [1] (compound concentration 0.5 nM), 130 and 71 and 83 and 70 and 41 and 86; in series [1] (compound concentration 5 nM), 36 and 47 and 58 and 65 and 88 and 75 and 56 and 78 and 49 and 67 (2×) and 48 and 31 and 86 and 41 and 66 and 57; in series [1] (compound concentration 50 nM) it was 28 and 33 (2×) and 29 (2×) and 4 and 49 and 47 and 53 and 35 and 57 (2×) and 60 and 15 and 56 and 46 and 19 and 25 and 65. For the same compound, the “inhibition of TNFα and IL-8 in spleen, in words” value in series [2] (rat, 0.3 mg/kg SC, intravenous L18-MDP challenge) was “short-lived and returned to basal levels by the third day post-dose”. Further, the “cytokine level (fig 6e)” value in series [2] (time 6 h) is 14.13 and 34.14 and 14.02 and 19.73 and 14.97; in series [2] (time 24 h) it was 45.7 and 38.46 and 58.3 and 40.91 and 52.98; in series [2] (time 72 h), 111.22 and 59.85 and 73.1 and 99 and 52.1; in series [2] (time 240 h) it was 97.65 and 76.46 and 96.01 and 80.21 and 59.48; in series [2] (time 408 h), 146.67 and 133.23 and 180.63 and 211.01 and 68.17. Moreover, the “cytokine level (fig 6f)” value is 4.45 and 4.35 and 4.34 and 3.21 and 3.53 in series [2] (time 6 h); 4.32 and 2.78 and 5.01 and 2.54 and 9.72 in series [2] (time 24 h); 75.27 and 51.34 and 57.62 and 94.65 and 61.7 in series [2] (time 72 h); 72.27 and 99.15 and 93.27 and 64.45 and 48.45 in series [2] (time 240 h); 79.92 and 69.55 and 103.81 and 98.05 and 47.92 in series [2] (time 408 h). The “cytokine level (fig 6d)” value in series [2] (time 6 h) is 2.77 (2×) and 3.58 and 3.26 and 3.28; in series [2] (time 24 h) it was 4.43 and 2.62 and 4.18 and 4.64 and 5.01; in series [2] (time 72 h) it was 45 and 42.87 and 29.6 and 47.75 and 33.69; in series [2] (time 240 h), 65.15 and 73.34 and 58.46 and 1.72 and 47.46; in series [2] (time 408 h), 41.62 and 64.64 and 76.25 and 77.33 and 37.06.
Consider `CN[C@@H](C)C(=O)N[C@H](C(=O)N1CCC[C@H]1c1nc(C(=O)c2ccc(F)cc2)cs1)C1CCN(C(=O)c2cnc(N3CCN(CCOc4cc5ncnc(Nc6n[nH]c(C)c6C)c5cc4S(=O)(=O)C(C)(C)C)CC3)nc2)CC1` [PROTAC 4], for which the “hWB MDP pIC50 ± SEM (n)” value in the series on MDP-induced TNFα release was 7.7 ± 0.05 (4). Also, the clearance in hepatocytes in the series “Hepatocyte CLint, rat” was less than 0.80 mL/min/g liver.

As usually defined, the IC50 is the point on the concentration scale where inhibition reaches its midpoint.
